Results from patent publication US5543415A, “Antidepressants” (Kyowa Hakko Kogyo Co., Ltd., priority 1992, dated 1996).

Columns and labels:
[1] = test system: clonidine-induced aggressive behavior; experiment: Effect on Clonidine-Induced Aggressive Behavior (number of biting attacks during 30 minutes); assay type: in vivo, male ddY mice; settings: 10 mg/kg, po; for Number of the Biting Attacks (mean ± S.E.M.), Test Compound-Treated Group: 60 min before clonidine 20 mg/kg ip, 30 min count; for response vs control in vivo at 10 mg/kg: Mus musculus, read-out: Number of the Attacks of Test Compound-Treated Group/Number of the Attacks of Control Group
Description: The effect of a test compound on the aggressive behavior induced by intraperitoneal administration of clonidine was investigated. […] The experiment was performed by using several groups of male ddY mice (weighing 20 to 25 g, Japan SLC), each group consisting of two mice. The test compound was suspended in injectable distilled water (Otsuka Pharmaceutical Co., Ltd.) containing Tween 80 [polyoxyethylene (20) sorbitan monooleate]. Clonidine hydrochloride (Sigma Co.) was dissolved in physiological saline solution (Otsuka Pharmaceutical Co., Ltd.). The test compound suspension and the control suspension were orally administered to separate groups of the mice (0.1 ml per 10 g of body weight). Sixty minutes after the oral administration of the test compound, clonidine hydrochloride (20 mg/kg) was intraperitoneally injected. The number of biting attacks during 30 minutes after clonidine treatment was counted. The effect of the compound was evaluated by comparing the average number of biting attacks of the test compound-administered groups with that of control groups (Statistical comparison: Student's t-test).

ddY-strain male mice = experiment: Acute Toxicity Test (minimum lethal dose, oral); assay type: in vivo; settings: seven days after administration
Description: Test compounds were orally administered to groups of ddY-strain male mice weighing 20±1 g, each group consisting of three mice. Seven days after the administration, minimum lethal dose (MLD) of each compound was determined by observing the mortality.

Row | Compound | Number of the Biting Attacks (mean ± S.E.M.), Test Compound-Treated Group [1] | MLD (minimum lethal dose) (ddY-strain male mice) [mg/kg] | response vs control in vivo at 10 mg/kg [1] [%]
1 | CCn1c(=O)c2c(nc(/C=C/c3ccc(F)cc3)n2C)n(CC)c1=O [Compound 150, (E)-1,3-Diethyl-8-(4-fluorostyryl)-7-methylxanthine] | 42.1 ± 10.18 | > 100 | 
2 | CCn1c(=O)c2c(nc(/C=C/c3ccc(C)cc3)n2C)n(CC)c1=O [Compound 152, (E)-1,3-Diethyl-7-methyl-8-(4-methylstyryl)xanthine] | 82.6 ± 23.07 | > 100 | 670
3 | CCn1c(=O)c2c(nc(/C=C/c3cccc(Br)c3)n2C)n(CC)c1=O [Compound 162, (E)-8-(3-Bromostyryl)-1,3-diethyl-7-methylxanthine] | 17.9 ± 6.67 | > 100 | 850
4 | CCn1c(=O)c2c(nc(/C=C/c3ccccc3F)n2C)n(CC)c1=O [Compound 168, (E)-1,3-Diethyl-8-(2-fluorostyryl)-7-methylxanthine] | 53.9 ± 8.59 | > 100 | 710
5 | CCn1c(=O)c2c(nc(/C=C/c3ccc(OC)c(F)c3)n2C)n(CC)c1=O [Compound 173, (E)-1,3-Diethyl-8-(3-fluoro-4-methoxystyryl)-7-methylxanthine] | 46.8 ± 14.89 | > 100 | 620
6 | CCn1c(=O)c2c(nc(/C=C/c3ccc(OC)c(C)c3)n2C)n(CC)c1=O [Compound 175, (E) -1,3-Diethyl-8-(4-methoxy-3-methylstyryl)-7-methylxanthine] | 49.1 ± 15.59 | > 100 | 790
7 | CCn1c(=O)c2c(nc(/C=C/c3cc(OC)c4c(c3)OCO4)n2C)n(CC)c1=O [Compound 179, (E)-1,3-Diethyl-8-(3-methoxy-4,5-methylenedioxystyryl)7-methylxanthine] | 67.7 ± 16.08 | > 100 | 
8 | CCn1c(=O)c2c(nc(/C=C/c3cccc(F)c3C)n2C)n(CC)c1=O [Compound 181, (E)-1,3-Diethyl-8-(3-fluoro-2-methylstyryl)-7-methylxanthine] | 49.5 ± 9.09 | > 100 | 800
9 | CCn1c(=O)c2c(nc(/C=C/c3ccc(O)cc3)n2C)n(CC)c1=O [Compound 184, (E)-1,3-Diethyl-8-(4-hydroxystyryl)-7-methylxanthine] | 77.1 ± 11.47 | > 100 | 
10 | CCn1c(=O)c2c(nc(/C=C/c3ccc(OCc4ccccc4)cc3)n2C)n(CC)c1=O [Compound 185, (E)-8-(4-Benzyloxystyryl)-1,3-diethyl-7-methylxanthine] | 46.9 ± 14.00 | > 100 | 620
